In article PMC9279437, “Cytopathic SARS-CoV-2 screening on VERO-E6 cells in a large-scale repurposing effort” (Scientific Data, 2022):
Counter-ions that a name gives are not always drawn. Like-named read-outs stand apart in the source and are kept apart here. Peptide text beside a SMILES is read from it. * marks the point of attachment. Cbz = O=C(OCc1ccccc1)*

What was measured:
SARS-CoV-2 [1] = system: SARS-CoV-2
SARS-CoV-2 [2] = experiment: microbe, parasite or virus in culture
[3] = Cytotoxicity assessment in dose response without virus infection; details: Chlorocebus sabaeus (African green monkey)
in vitro = details: Chlorocebus sabaeus (African green monkey)
Vero E6 EGFP cells [4] = experiment: Cytotoxicity assessment in dose response without virus infection; details: cytotoxicity in the absence of virus, Vero E6 EGFP, 33 µM to 10 nM
Vero E6 EGFP cells [5] = system: Vero E6 EGFP cells
SARS-CoV-2 [6] = experiment: Primary anti-cytopathicity assay development: control compound profiling, 384-well plates; assay type: cell-based, Severe acute respiratory syndrome coronavirus 2; details: mean
SARS CoV-2 = system: SARS CoV-2; parameters: method as in PMID 32473310; details: VERO-E6 cells; cited from earlier work
coronavirus OCR43 = system: coronavirus OCR43; parameters: method as in PMID 33324406; details: LLC-MK2 cells; cited from earlier work
[7] = ratio of cytotoxic to anti-cytopathic effects
[8] = Severe acute respiratory syndrome coronavirus 2, Vero C1008, 96 h
[9] = Severe acute respiratory syndrome coronavirus 2, read-out: Average IC50, d3 of incubation, 4000 cells seeded
[10] = Severe acute respiratory syndrome coronavirus 2, read-out: Average IC50, d3 of incubation, 8000 cells seeded
[11] = Severe acute respiratory syndrome coronavirus 2, read-out: Average IC50, d4 of incubation, 4000 cells seeded
[12] = Severe acute respiratory syndrome coronavirus 2, read-out: Average IC50, d4 of incubation, 8000 cells seeded
[13] = Severe acute respiratory syndrome coronavirus 2, read-out: Average IC50, d5 of incubation, 4000 cells seeded
[14] = Severe acute respiratory syndrome coronavirus 2, read-out: Average IC50, d5 of incubation, 8000 cells seeded

O=C1OC2(c3ccc(O)cc3Oc3cc(O)ccc32)c2ccccc21 [Fluorescein]
SI (CC50/IC50) (SARS-CoV-2 [1]; [7]): 49.25
IC50 (SARS-CoV-2 [2]; [8]): 0.67 µM
CC50 at 4 days [3]: > 33 µM

CC(C)COCC(CN(Cc1ccccc1)c1ccccc1)N1CCCC1 (centres unmarked) [Bepridil]
CC50 at 4 days [3]: 23.4 µM

CC(=O)[C@]1(N)Cc2c(O)c3c(c(O)c2[C@@H](O[C@H]2C[C@H](O)[C@H](O)CO2)C1)C(=O)c1ccccc1C3=O [Amrubicin]
SI (CC50/IC50) (SARS-CoV-2 [1]; [7]): 100.00
CC50 (in vitro): > 33 µM
IC50 (SARS-CoV-2 [2]; [8]): 0.33 µM

O=C(c1c2ccccc2cc2ccccc12)N1CCC(N2CCC[C@@H](C(=O)N3CCOCC3)C2)CC1 [CP-640186]
CC50 (Vero E6 EGFP cells [4]): 10.2 µM

Cc1ccc(NC(=O)c2ccc(CN3CCN(C)CC3)cc2)cc1Nc1nc(-c2cccnc2)cs1 [Masitinib (AB1010), Masitinib]
IC50 (SARS-CoV-2 [2]; [8]): < 20 µM
CC50 at 4 days [3]: > 33 µM

CCN(CC)CCOc1ccc(C(=C(Cl)c2ccccc2)c2ccccc2)cc1 [Clomiphene citrate]
CC50 at 4 days [3]: > 33 µM

O=C(Nc1ccc([N+](=O)[O-])cc1Cl)c1cc(Cl)ccc1O [Niclosamide]
SI (CC50/IC50) (SARS-CoV-2 [1]): 8.05
IC50 (SARS-CoV-2 [2]; [8]): 4.1 µM
CC50 at 4 days [3]: > 33 µM

C[C@@H]1C[C@@H]([C@H](O)CC2CC(=O)NC(=O)C2)C(=O)[C@@H](C)C1 [Cycloheximide]
CC50 (in vitro): 10.2 µM

Cc1c(O)cccc1C(=O)N[C@@H](CSc1ccccc1)[C@H](O)CN1C[C@H]2CCCC[C@H]2C[C@H]1C(=O)NC(C)(C)C [[…]]
CC50 (in vitro): > 33 µM

OCCNC1CCCc2c1[nH]c1ccc(-c3ccccc3)cc21 (centres unmarked) [casin]
CC50 (Vero E6 EGFP cells [5]): > 33 µM

CC(C)(O)CNc1ncc(-c2ccnc(Nc3ccnc(Cl)c3)n2)c(CC2CC2)n1 [VPS34-IN-1]
CC50 (in vitro): 26.8 µM

Nc1nc2nn[nH]c2c(=O)[nH]1 [8-Azaguanine]
SI (CC50/IC50) (SARS-CoV-2 [1]): 2.79
CC50 (in vitro): 10.4 µM
IC50 (SARS-CoV-2 [2]; [8]): 3.72 µM

CCC(CC)COC(=O)[C@H](C)N[P@](=O)(OC[C@H]1O[C@@](C#N)(c2ccc3c(N)ncnn23)[C@H](O)[C@@H]1O)Oc1ccccc1 [Remdesivir, remdesivir]
IC50 (SARS-CoV-2 [6]; [9]): 2.73 µM
IC50 (SARS-CoV-2 [6]; [10]): 1.56 µM
IC50 (SARS-CoV-2 [6]; [11]): 3.74 µM
IC50 (SARS-CoV-2 [6]; [12]): 2.27 µM
IC50 (SARS-CoV-2 [6]; [13]): 4.67 µM
IC50 (SARS-CoV-2 [6]; [14]): 2.99 µM
IC50 (SARS-CoV-2 [2]; Severe acute respiratory syndrome coronavirus 2, Vero C1008, read-out: IC50 (%Confluence versus compound concentration), positive control, curve fitting example Fig. 4): 1.7 µM

Cc1cccc(C)c1OCC(=O)N[C@@H](Cc1ccccc1)[C@@H](O)C[C@H](Cc1ccccc1)NC(=O)[C@H](C(C)C)N1CCCNC1=O [Lopinavir, lopinavir]
IC50 (SARS-CoV-2 [6]; [9]): 9.21 µM
IC50 (SARS-CoV-2 [6]; [10]): 7.58 µM
IC50 (SARS-CoV-2 [6]; [11]): 11.3 µM
IC50 (SARS-CoV-2 [6]; [12]): 12 µM
IC50 (SARS-CoV-2 [6]; [14]): 21.1 µM

O=C(c1ccc(OCCN2CCCCC2)cc1)c1c(-c2ccc(O)cc2)sc2cc(O)ccc12 [Raloxifene hydrochloride]
IC50 (SARS-CoV-2 [1]): 15.4 µM
SI (CC50/IC50) (SARS-CoV-2 [1]): 2.14
activity in phenotypic assay of SARS CoV-2 viral infection (SARS CoV-2): active
activity against coronavirus OCR43 (coronavirus OCR43): active
IC50 (SARS-CoV-2 [2]; [8]): < 20 µM
CC50 at 4 days [3]: > 33 µM

COc1cc2c(N3CCN(C(=O)Nc4ccc(OC(C)C)cc4)CC3)ncnc2cc1OCCCN1CCCCC1 [Tandutinib (MLN518), Tandutinib]
IC50 (SARS-CoV-2 [1]): < 20 µM
CC50 (in vitro): > 33 µM

3'-fluoro-benzyl-spiperone
CC50 (Vero E6 EGFP cells [4]): 27.4 µM

COc1cc(NCc2ccc3nc(N)nc(N)c3c2C)cc(OC)c1OC [Trimetrexate]
IC50 (SARS-CoV-2 [1]): < 20 µM
CC50 at 4 days [3]: 1.99 µM

CCN(CC)Cc1cc(Nc2ccnc3cc(Cl)ccc23)ccc1O [Amodiaquine]
SI (CC50/IC50) (SARS-CoV-2 [1]): 4.12
IC50 (SARS-CoV-2 [2]; [8]): 4.07 µM
CC50 at 4 days [3]: 16.8 µM

Nc1c[nH]c(=O)c2cc(-c3ccccc3)sc12 [Thieno-pyridone]
IC50 (SARS-CoV-2 [1]): 5.26 µM
SI (CC50/IC50) (SARS-CoV-2 [1]; [7]): 6.27
CC50 (Vero E6 EGFP cells [5]): > 33 µM

O=C(c1c2ccccc2cc2ccccc12)N1CCC(N2CCC[C@@H](C(=O)N3CCOCC3)C2)CC1 [CP-640186 (hydro-chloride)]
CC50 (Vero E6 EGFP cells [5]): 10.9 µM

Cc1cccc(Nc2nc(-c3ccncc3)cs2)c1 [STF-62247]
CC50 (Vero E6 EGFP cells [4]): 31.5 µM

Nc1nc2c(ncn2[C@@H]2O[C@H](CO)[C@@H](O)[C@H]2O)c(=S)[nH]1 [Thioguanosine]
CC50 (in vitro): > 33 µM

Nc1ncnc2c1ncn2[C@@H]1CC[C@@H](O)[C@H]1O [DHCaA]
CC50 (Vero E6 EGFP cells [5]): 15.7 µM

COc1ccc2c(c1)[C@]1(C[C@H]1c1ccc3c(/C=C/c4ccc(CN5C[C@@H](C)O[C@@H](C)C5)cc4)n[nH]c3c1)C(=O)N2 [CFI-400945]
CC50 at 4 days (in vitro): > 33 µM

Nc1cc2c3ccccc3ccc2c2ccccc12 [6-amino-chrysene]
SI (CC50/IC50) (SARS-CoV-2 [1]; [7]): 2.84
CC50 (in vitro): > 33 µM
IC50 (SARS-CoV-2 [2]; [8]): 11.6 µM

CC(C)(C)NCc1ccc(Nc2ccnc3cc(Cl)ccc23)cc1O [N-tert-Butylisoquine]
CC50 at 4 days (in vitro): 12.4 µM

COc1cc(C[C@H]2c3cc(OC)c(OC)cc3CCN2C)c(Oc2cc3c(cc2OC)-c2c(OC)c(OC)cc4c2[C@H](C3)N(C)CC4)cc1OC [Thaliblastine]
IC50 (SARS-CoV-2 [1]): 3.87 µM
SI (CC50/IC50) (SARS-CoV-2 [1]; [7]): 8.53

CCN(CC)c1ccc2cc(-c3nc4ccccc4[nH]3)c(=O)oc2c1 [Coumarin 7]
IC50 (SARS-CoV-2 [1]): 0.36 µM
SI (CC50/IC50) (SARS-CoV-2 [1]): 91.67

CCN(CCO)CCCC(C)Nc1ccnc2cc(Cl)ccc12 (centres unmarked) [Hydroxychloroquine, hydroxychloroquine]
IC50 (SARS-CoV-2 [6]; [9]): 16.4 µM
IC50 (SARS-CoV-2 [6]; [10]): 15.8 µM
IC50 (SARS-CoV-2 [6]; [11]): 21 µM
IC50 (SARS-CoV-2 [6]; [12]): 25.8 µM
IC50 (SARS-CoV-2 [6]; [14]): 43.6 µM

CC(C)C[C@@H](C=O)NC(=O)[C@H](CC(C)C)NC(=O)[C@H](CC(C)C)NC(=O)OCc1ccccc1 [MG-132] (Cbz-Leu-Leu-Leu-aldehyde)
CC50 at 4 days [3]: 2.9 µM

Cc1cc(O)c2c(=O)c3c(O)cc(O)c4c5c(O)cc(O)c6c(=O)c7c(O)cc(C)c8c1c2c(c34)c(c78)c65 [Hypericin]
SI (CC50/IC50) (SARS-CoV-2 [1]; [7]): 5.24
CC50 (in vitro): 1.31 µM
IC50 (SARS-CoV-2 [2]; [8]): 0.25 µM

Cc1cc(O[C@@H](CCC(F)(F)F)c2ccc(C(=O)NCCC(=O)O)cc2)cc(C)c1-c1ccc(C(C)(C)C)cc1 [Adomeglivant]
CC50 at 4 days (in vitro): > 33 µM

CN1CCN(C2CCN(C(=O)Nc3cc(Oc4ccc(NC(=O)C5(C(=O)Nc6ccc(F)cc6)CC5)c(F)c4)ccn3)CC2)CC1 [Golvatinib (E7050), Golvatinib]
SI (CC50/IC50) (SARS-CoV-2 [1]; [7]): 5.60
CC50 at 4 days (in vitro): > 33 µM
IC50 (SARS-CoV-2 [2]; [8]): 5.89 µM

CCCCCCCCCCCCCCOc1ccc(C(=O)O)o1 [KD-023]
IC50 (SARS-CoV-2 [1]): 4.04 µM
SI (CC50/IC50) (SARS-CoV-2 [1]; [7]): 8.17

CCCCN(CCCC)CCC(O)c1cc2c(Cl)cc(Cl)cc2c2cc(C(F)(F)F)ccc12 (centres unmarked) [Halofantrine hydrochloride]
CC50 at 4 days [3]: > 33 µM

CCN1CCN(Cc2ccc(-c3cc4c(N[C@H](C)c5ccccc5)ncnc4[nH]3)cc2)CC1 [AEE788]
SI (CC50/IC50) (SARS-CoV-2 [1]; [7]): 8.38
IC50 (SARS-CoV-2 [2]; [8]): 3.94 µM
CC50 at 4 days [3]: > 33 µM

Rhodamine-123
IC50 (SARS-CoV-2 [1]): 0.8 µM
SI (CC50/IC50) (SARS-CoV-2 [1]; [7]): 41.25

Cc1[nH]c(/C=C2\C(=O)Nc3ccc(S(=O)(=O)Cc4c(Cl)cccc4Cl)cc32)c(C)c1C(=O)N1CCC[C@@H]1CN1CCCC1 [PHA-665752]
CC50 (in vitro): > 33 µM

CNCc1ccc(-c2cc(-c3nc(-c4ccc(S(=O)(=O)C(C)C)cc4)cnc3N)on2)cc1 [VE-822]
IC50 (SARS-CoV-2 [1]): < 20 µM
SI (CC50/IC50) (SARS-CoV-2 [1]; [7]): 3.75
CC50 at 4 days (in vitro): 10 µM

CCN(CC)CCCC(C)Nc1ccnc2cc(Cl)ccc12 (centres unmarked) [Chloroquine, chloroquine]
IC50 (SARS-CoV-2 [6]; [9]): 11.3 µM
IC50 (SARS-CoV-2 [6]; [10]): 8.69 µM
IC50 (SARS-CoV-2 [6]; [11]): 13.4 µM
IC50 (SARS-CoV-2 [6]; [12]): 13.5 µM
IC50 (SARS-CoV-2 [6]; [13]): 13.5 µM
IC50 (SARS-CoV-2 [6]; [14]): 17.1 µM

COc1ccc2cc1Oc1ccc(cc1)C[C@H]1c3cc(c(OC)cc3CCN1C)Oc1c(OC)c(OC)cc3c1[C@H](C2)N(C)CC3 [Tetrandrine (Fanchinine), Tetrandrine]
CC50 at 4 days [3]: > 33 µM
